Data as given in patent US20240060990A1, “SPATIAL SIGNALING NETWORKS FOR MULTIPLEXED DRUG RESPONSE MEASUREMENT AND MODELING” (Georgia Tech Research Corporation, priority 2022, published 2024).
Entries after “also recorded” stand apart in the source; their conditions may differ.

Columns and labels:
[1] = tested on: p-AKT(S473); assay: RapMIF multiplexed immunofluorescence in PC9 cells, p-AKT; assay type: cell-based, human; conditions: 40 nM, 48 hours vs control
Text: (§1) RapMIF: The RapMIF setup consisted of an autosampler that transferred antibodies and performed washes of the sample automatically and controlled by a custom-written python code (FIGS. 10A-10D). The buffers used during the procedure are 1×PBS (D8537, Sigma), CSM, and Fluorophore bleaching solution. PBS 1× was the wash buffer for the stabilization of the cells and the tubes. CSM was the imaging buffer that helped in the annealing of antibodies with the cells. Fluorophore bleaching solution was the strip buffer used to remove staining after each cycle. The walls on the 96-well plate for the antibodies were pre-washed with 1×PBS. The well plate was covered with foil stickers to ensure a dark condition. […] Once the cells were mounted and the antibodies and buffers were ready for transfer, automatic staining was done by running Python code. […]
(§2) Cell multiplexing: Each coverslip prepared with cells was stained with 25 markers using a total of 11-12 cycles (FIG. 10C). […] To quantify the frequencies belonging to the signal that disappears after bleaching, a Fourier analysis of before and after bleaching was performed to indicate the difference in frequencies belonging to the signal.
(§3) Image intensity: From nuclei and cytosol cell masks, the mean intensity of markers in each cell area was calculated. […]

[2] = tested on: PC9 cells; conditions: 0 to 10 nM, 3-day treatment; cited from earlier work
[3] = tested on: PC9 cells; assay: RapMIF pixel clustering and spatial signaling network; assay type: cell-based, human
Text: Pixel clustering: Pixel phenotypes were clustered in a two-step clustering pipeline (FIG. 6A). From each pixel location within the cell segmented region, the intensity value of each marker expression was extracted. The resulting feature matrix consisted of n rows of a total number of pixels and p columns equal to the number of markers. Each column of the feature matrix was min-max normalized. Then to filter out the background, each pixel location (row in the matrix) with all markers intensity lower than 0.3 was considered as background and dropped from the feature matrix. The cut-off of 0.3 was determined empirically so noise was filtered out of the cell segmented region. The feature matrix was first clustered using the K-Means algorithm with a high number of clusters (k=60). Then, the mean expression per cluster was calculated and the cluster was merged based on hierarchical clustering on the cosine similarity of the mean expression using the average linkage method with a tolerance of 0.2 of the maximum distance between clusters. The latent feature space was obtained using Uniform manifold approximation and projection (UMAP) and cluster labels were visualized by assigning each cluster color and reprojected on the UMAP embedding. A Heatmap of the mean expression level of marker per cluster was generated to show the variation of cluster phenotype.
Spatial signaling network: The network representation of spatial signaling was represented using the spatial information of pixel clustering. Each cluster was represented by a node with node size in the network proportional to the number of pixels in the corresponding cluster. For each cluster, the distribution of the neighbor cluster was calculated by looking at the 2-hop neighbor's cluster of all pixels in the cluster. The edge color represented low (blue) to high (red) neighboring probability between two clusters.

[4] = tested on: p-EGFR (Tyr1086); assay: p-EGFR immunofluorescence across four drug concentrations; assay type: cell-based, human; conditions: PC9 cells, 48 hours
Experimental: Following that, the cells were then fixed and permeabilized with 1.6% formaldehyde in 1×PBS for 10 minutes at RT and 0.5% Triton X-100 for 10 minutes at RT, respectively (FIG. 10A). The cells were then blocked using a cell staining medium (CSM) containing […]. […] PC9 cells were stained with p-EGFR and β-tubulin overnight followed by 1-hour incubation of secondary antibodies at RT, and 15 mins DAPI staining. The cells were then imaged at 40× magnification, and the cell number was analyzed using ImageJ. […] The coverslip was mounted to an acrylic holder for multiple cycles of staining.

[5] = tested on: WNT1; assay: RapMIF multiplexed immunofluorescence in PC9 cells, WNT1; assay type: cell-based, human; conditions: 40 nM, 48 hours vs control
Text: as §1, §2, §3

**Q.** For C=CC(=O)Nc1cc(Nc2nccc(-c3cn(C)c4ccccc34)n2)c(OC)cc1N(C)CCN(C)C [Osimertinib], which p-AKT expression [1] is on record?
**A.** consistently downregulated; also recorded: consistent downregulation

**Q.** And the cell survival rate [2]?
**A.** decreased as the concentration has increased from 0 to 10 nM; also recorded: decreased as the concentration was increased from 0 to 10-nM

**Q.** And the spatial signaling networks [3]?
**A.** altered

**Q.** What about the “p-β-catenin clusters 12 and 19: degree of node and neighborhoods” value ([3]; 40 nM vs control) of the same molecule?
**A.** higher degree of a node and more neighborhoods with p-EGFR clusters

**Q.** And the “distribution of spatial signaling network maps in the cytosol (clusters 0, 1, 2)” value ([3]; 40 nM, 48 hours vs control)?
**A.** more dispersed (i.e., less aggregated) distribution in the cytosol; also recorded: more dispersed distribution in the cytosol

**Q.** And the “proportion (frequency) of cluster 2 (WNT1) and cluster 6 (non-p-β-catenin)” value ([3]; after 40 nM drug treatment)?
**A.** occupied a large proportion (frequency) after drug treatment

**Q.** And the “degree of the node of WNT1 in cluster 2” value ([3]; control vs 40 nM)?
**A.** reduced from 10 to 4

**Q.** And the “p-EGFR expression, 60 nM vs 40 nM” value [4]?
**A.** relatively higher expression under 60 nM than 40 nM

**Q.** And the p-EGFR expression ([4]; 0 to 20 nM to 40 nM, normalized to β-tubulin)?
**A.** decreased the p-EGFR expression as the drug concentration increased from 0 to 20 nM to 40 nM

**Q.** What about the WNT1 signaling [5] of the same molecule?
**A.** increased the WNT1 signaling
